Data reported in patent US9456992B2 (XSPRAY MICROPARTICLES AB, priority 2012, dated 2016).
Counter-ions that a name gives are not always drawn.

Assay: Dissolution measurement assay (apparent solubility, non-sink) in FeSSIF solution (pH 5)
Format: physicochemical
Protocol: The medium was prepared in accordance with the manufacturer's instructions. The amount of powder added depends on the wished “total PKI concentration”. […] For other experiments, the drug load was first estimated by HPLC and the amount of powder to obtain the drug concentration was calculated.
Typically, the powder was added in a 8 mL glass bottle and 7 mL of solution was added (typically FaSSIF, FeSSIF or SGF). The glass bottle was put on a shaker (approximately 1 rotation per minute) for dissolution. Samples of 500 μl where taken after different times, and subsequently centrifuged at approximately 15000 g for 3 minutes. The resulting supernatant was then analyzed by HPLC (C18 column Eclipse, 4.6 mm×15 cm, 1 mL/min, detection at 254-400 nM. Generally samples were taken after 5, 30 and 90 min and eventually 150 min.
The experiments were carried out by measuring concentration of solubilized PKI (mg/L) after 5, 30 and 90 minutes dissolution in a solution at about pH 6.5, namely FaSSIF (Fasted State Simulated Intestinal Fluid). Further, experiments were carried out in an alternative solution at about pH 5, namely FeSSIF (Fed State Simulated Intestinal Fluid). Samples of the solution were taken at various time intervals and the amount of protein kinase inhibitor was measured by the dissolution measurement assay described above.
The experiments were carried out by measuring concentration of PKI (mg/L) after 5, 30 and 90 minutes dissolution in a solution at about pH 6.5, namely FaSSIF (Fasted State Simulated Intestinal Fluid). Further, experiments were carried out in an alternative solution at about pH 5, namely FeSSIF (Fed State Simulated Intestinal Fluid). Samples of the solution were taken at various time intervals and the amount of PKI was measured by the dissolution measurement assay described above.

SMILES	% solubilized 30 min. (erlotinib HCl, 30 min dissolution)	AUC/ 90 min. (erlotinib HCl, AUC during 90 min dissolution)	% solubilized 30 min. (nilotinib HCl, after 30 minutes dissolution)
C#Cc1cccc(Nc2ncnc3cc(OCCOC)c(OCCOC)cc23)c1 [Exp 69, Erlotinib HCl]	19.0%	16303 Mg/min/L	
Cc1cn(-c2cc(NC(=O)c3ccc(C)c(Nc4nccc(-c5cccnc5)n4)c3)cc(C(F)(F)F)c2)cn1 [Exp 41, Nilotinib HCl]			0.18%
